Consider 22 compounds from PubChem BioAssay AID256 (DTP/NCI, 2004).

Inconclusive results and toxic doses are left out.

The subject of this experiment is CD2F1 mice, L1210 leukemia ip, survival T/C. Briefly: NCI In Vivo Anticancer Drug Screen. Data for tumor model L1210 Leukemia (intraperitoneal) in CD2F1 (CDF1) mice. The settings on record: endpoint: mean survival time, higher = longer survival. In a few lines:
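Activity against a transplanted murine tumor was judged by comparing the compound group with a vehicle group. The outcome in the treated animals was divided by that in the controls.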

The mark [1] stands for this setting: dose: 100.0 mg/kg/injection, schedule: Q04DX003 (ip), vehicle: saline.
[2] abbreviates: dose: 200.0 mg/kg/injection, schedule: Q04DX003 (ip), vehicle: saline.
The mark [3] stands for this setting: dose: 400.0 mg/kg/injection, schedule: Q04DX003 (ip), vehicle: saline.
The mark [4] stands for this setting: dose: 100.0 mg/kg/injection, schedule: Q01DX009 (ip), vehicle: saline with Tween-80.
Setting [5] is: dose: 200.0 mg/kg/injection, schedule: Q01DX009 (ip), vehicle: saline with Tween-80.
Setting [6] is: dose: 400.0 mg/kg/injection, schedule: Q01DX009 (ip), vehicle: saline with Tween-80.
Where [7] appears, read: dose: 100.0 mg/kg/injection, schedule: Q01DX001 (ip), vehicle: saline.
The mark [8] stands for this setting: dose: 200.0 mg/kg/injection, schedule: Q01DX001 (ip), vehicle: saline.
Where [9] appears, read: dose: 400.0 mg/kg/injection, schedule: Q01DX001 (ip), vehicle: saline.
Setting [10] is: dose: 200.0 mg/kg/injection, schedule: Q01DX009 (ip), vehicle: saline.
Setting [11] is: dose: 100.0 mg/kg/injection, schedule: Q04DX003 (ip), vehicle: saline with Tween-80.
Setting [12] is: dose: 200.0 mg/kg/injection, schedule: Q04DX003 (ip), vehicle: saline with Tween-80.
Where [13] appears, read: dose: 400.0 mg/kg/injection, schedule: Q04DX003 (ip), vehicle: saline with Tween-80.
Where [14] appears, read: dose: 50.0 mg/kg/injection, schedule: Q01DX009 (ip), vehicle: saline.
Where [15] appears, read: dose: 50.0 mg/kg/injection, schedule: Q04DX003 (ip), vehicle: saline.
Setting [16] is: dose: 100.0 mg/kg/injection, schedule: Q01DX009 (ip), vehicle: saline.

Turning to `O=C1C2C(C(=O)N1c1ccc([N+](=O)[O-])cc1)C1c3ccccc3C2C2CCCCN21` (stereo not given), the T/C is, setting by setting: (dose: 100.0 mg/kg/injection, schedule: Q01DX001 (ip), vehicle: Klucel (hydroxypropylcellulose) (HPC)) 93 % of control; (dose: 200.0 mg/kg/injection, schedule: Q01DX001 (ip), vehicle: Klucel (hydroxypropylcellulose) (HPC)) 101 % of control; (dose: 400.0 mg/kg/injection, schedule: Q01DX001 (ip), vehicle: Klucel (hydroxypropylcellulose) (HPC)) 100 % of control.

With `COc1cc(C)ccc1C1=CCCCCC1`, the T/C is 93 % of control under setting [1], 93 % of control under setting [2] and 103 % of control under setting [3].

`Nc1nc2nc(-c3ccccc3)c(-c3ccccc3)nc2c(=O)[nH]1`: the T/C under setting [4] was 96 % of control, the T/C under setting [5] is 94 % of control and the T/C under setting [6] is 97 % of control.

`CCCCCCCCCCCCCCCCOC(=O)Nc1ccc(S(=O)(=O)N(CCC)CCC)cc1`: the T/C under setting [7] is 94 % of control, the T/C under setting [8] was 96 % of control and the T/C under setting [9] is 92 % of control.

Turning to `Nc1ccn([C@H]2C[C@@H](CO)[C@H](O)[C@@H]2O)c(=O)n1`, the T/C is, setting by setting: (dose: 22.0 mg/kg/injection, schedule: Q03HX024 (ip), vehicle: saline) 159 % of control; (dose: 33.0 mg/kg/injection, schedule: Q03HX024 (ip), vehicle: saline) 164 % of control; (dose: 50.0 mg/kg/injection, schedule: Q03HX024 (ip), vehicle: saline) 169 % of control; (dose: 75.0 mg/kg/injection, schedule: Q04HX024 (ip), vehicle: saline) 176 % of control; (dose: 100.0 mg/kg/injection, schedule: Q04HX024 (ip), vehicle: saline) 177 % of control; (dose: 150.0 mg/kg/injection, schedule: Q01DX009 (ip), vehicle: saline) 150 % of control. For the same compound, the T/C reads like this: under setting [10], 182 % of control; (dose: 450.0 mg/kg/injection, schedule: Q01DX009 (ip), vehicle: saline) 166 % of control.

For the compound `CC(=O)c1cc([N+](=O)[O-])ccc1O`, the T/C reads like this: (dose: 25.0 mg/kg/injection, schedule: Q01DX009 (ip), vehicle: saline with Tween-80) 90 % of control; (dose: 50.0 mg/kg/injection, schedule: Q01DX009 (ip), vehicle: saline with Tween-80) 90 % of control; under setting [4], 88 % of control; under setting [11], 97 % of control.

Take `[Cl][Pt+2][Cl].[NH-]c1cc(F)ccc1F.[NH-]c1cc(F)ccc1F`: the T/C (dose: 3.13 mg/kg/injection, schedule: Q04DX003 (ip), vehicle: distilled water + Tween-80) was 112 % of control; the T/C (dose: 6.25 mg/kg/injection, schedule: Q04DX003 (ip), vehicle: distilled water + Tween-80) was 110 % of control; the T/C (dose: 12.5 mg/kg/injection, schedule: Q04DX003 (ip), vehicle: distilled water + Tween-80) is 112 % of control; the T/C (dose: 25.0 mg/kg/injection, schedule: Q04DX003 (ip), vehicle: distilled water + Tween-80) is 120 % of control; the T/C (dose: 50.0 mg/kg/injection, schedule: Q04DX003 (ip), vehicle: distilled water + Tween-80) was 110 % of control.

As to `S=[As](c1ccccc1)(c1ccccc1)c1ccccc1`, the T/C was 103 % of control under setting [7], 100 % of control under setting [8] and 91 % of control under setting [9].

With `COC1OC2COC(c3ccccc3)OC2C2OC12` (stereo not given), the T/C was 94 % of control under setting [4], 92 % of control under setting [5] and 97 % of control under setting [6].

With `CCCCN(CNC(C)=O)N=O`, the T/C was 95 % of control (dose: 100.0 mg/kg/injection, schedule: Q04DX002 (ip), vehicle: saline with Tween-80); 88 % of control (dose: 200.0 mg/kg/injection, schedule: Q04DX002 (ip), vehicle: saline with Tween-80); 100 % of control (dose: 400.0 mg/kg/injection, schedule: Q04DX002 (ip), vehicle: saline with Tween-80).

Consider `CC1(C)N=C(N)N=C(N)N1c1ccc(OCCOc2ccc(NC(=O)CBr)cc2)cc1`, for which the T/C is, setting by setting: (dose: 176.0 mg/kg/injection, schedule: Q01DX006 (ip), vehicle: other) 118 % of control; (dose: 266.0 mg/kg/injection, schedule: Q01DX006 (ip), vehicle: other) 124 % of control; (dose: 600.0 mg/kg/injection, schedule: Q01DX006 (ip), vehicle: other) 94 % of control.

Turning to `Cc1ccc(NC(=O)COc2cc(Cl)c(Cl)cc2Cl)cc1C`, the T/C reads like this: under setting [11], 102 % of control; under setting [12], 93 % of control; under setting [13], 96 % of control.

Consider `CCOC(=O)C(OC(=O)c1ccccc1)c1ccccc1` (stereo not given), for which the T/C (dose: 100.0 mg/kg/injection, schedule: Q01DX009 (ip), vehicle: other) is 98 % of control; the T/C (dose: 200.0 mg/kg/injection, schedule: Q01DX009 (ip), vehicle: other) is 96 % of control; the T/C (dose: 400.0 mg/kg/injection, schedule: Q01DX009 (ip), vehicle: other) is 96 % of control.

On to `Oc1c(Cl)cc(Cl)cc1/C=N/NC(=S)Nc1cc(C(F)(F)F)cc(C(F)(F)F)c1`, for which the T/C was 102 % of control (dose: 6.25 mg/kg/injection, schedule: Q01DX009 (ip), vehicle: olive oil, sesame oil, peanut oil); 100 % of control (dose: 12.5 mg/kg/injection, schedule: Q01DX009 (ip), vehicle: olive oil, sesame oil, peanut oil); 100 % of control (dose: 25.0 mg/kg/injection, schedule: Q01DX009 (ip), vehicle: olive oil, sesame oil, peanut oil); 102 % of control (dose: 50.0 mg/kg/injection, schedule: Q01DX009 (ip), vehicle: olive oil, sesame oil, peanut oil); 102 % of control (dose: 100.0 mg/kg/injection, schedule: Q01DX009 (ip), vehicle: olive oil, sesame oil, peanut oil); 94 % of control (dose: 200.0 mg/kg/injection, schedule: Q01DX009 (ip), vehicle: olive oil, sesame oil, peanut oil).

On to `CNC(=O)NNc1ccccc1`, for which the T/C runs as follows: under setting [11], 102 % of control; under setting [12], 98 % of control; under setting [13], 104 % of control.

Turning to `CC1=NCCCN=C(C)C([N+](=O)[O-])C=NC(C)(C)CN=CC1[N+](=O)[O-].[Ni]` (stereo not given), the T/C was 97 % of control (dose: 12.5 mg/kg/injection, schedule: Q04DX002 (ip), vehicle: saline with Tween-80); 97 % of control (dose: 25.0 mg/kg/injection, schedule: Q04DX002 (ip), vehicle: saline with Tween-80); 93 % of control (dose: 50.0 mg/kg/injection, schedule: Q04DX002 (ip), vehicle: saline with Tween-80).

As for `Nc1nc(N)c2nc(NCc3ccc(C(=O)NC(CCC(=O)O)C(=O)O)cc3)cnc2n1` (stereo not given), the T/C under setting [14] was 103 % of control; the T/C under setting [15] is 97 % of control; the T/C under setting [16] is 103 % of control; the T/C under setting [1] was 96 % of control; the T/C under setting [10] is 116 % of control; the T/C under setting [2] was 96 % of control. The T/C under setting [3] is 100 % of control.

For `CCCCCCCCN(C#N)CCCCCCCC`, the T/C is, setting by setting: under setting [4], 100 % of control; under setting [5], 95 % of control; under setting [6], 97 % of control.

As for `COc1ccc(C(O)c2ccccc2C(=O)Nc2ccccc2)cc1` (stereo not given), the T/C by setting is: under setting [11], 93 % of control; under setting [12], 92 % of control; under setting [13], 88 % of control.

On to `CC(=O)NCCCCCCNC(C)=O`, for which the T/C is, setting by setting: (dose: 25.0 mg/kg/injection, schedule: Q01DX009 (ip), vehicle: saline) 96 % of control; under setting [14], 100 % of control; under setting [16], 100 % of control; under setting [10], 94 % of control; (dose: 400.0 mg/kg/injection, schedule: Q01DX009 (ip), vehicle: saline) 100 % of control; (dose: 800.0 mg/kg/injection, schedule: Q01DX009 (ip), vehicle: saline) 93 % of control.

For `NC(=O)CCC(N)C(=O)O.[Cl-].[Cl-].[Cl-].[Cl-].[Pt+2]` (stereo not given), the T/C is 107 % of control (dose: 12.5 mg/kg/injection, schedule: Q01DX009 (ip), vehicle: water); 100 % of control (dose: 25.0 mg/kg/injection, schedule: Q01DX009 (ip), vehicle: water); 111 % of control (dose: 25.0 mg/kg/injection, schedule: Q04DX003 (ip), vehicle: saline); 119 % of control under setting [15].

Consider `CC(C)(C)N1CC2C(c3ccccc3)NNC2(O)C1=O` (stereo not given), for which the T/C was 109 % of control under setting [4], 113 % of control under setting [5] and 105 % of control under setting [6].
